The values below come from BindingDB's records for doi:10.1074/jbc.M112.419069 (John Innes Centre, 2013).

For this test, the target named is DNA gyrase subunit A (Mycobacterium tuberculosis (strain ATCC 25618 / H37Rv), UniProt P9WG47). The test is described as follows: Enzyme Assay. The method, then: Mycobacterium tuberculosis gyrase supercoiling, relaxation, and decatenation assays were carried out as described previously.

As a reminder, the IC50 is the point on the concentration scale where inhibition reaches its midpoint.

Chain of DNA gyrase subunit A (P9WG47 whole entry): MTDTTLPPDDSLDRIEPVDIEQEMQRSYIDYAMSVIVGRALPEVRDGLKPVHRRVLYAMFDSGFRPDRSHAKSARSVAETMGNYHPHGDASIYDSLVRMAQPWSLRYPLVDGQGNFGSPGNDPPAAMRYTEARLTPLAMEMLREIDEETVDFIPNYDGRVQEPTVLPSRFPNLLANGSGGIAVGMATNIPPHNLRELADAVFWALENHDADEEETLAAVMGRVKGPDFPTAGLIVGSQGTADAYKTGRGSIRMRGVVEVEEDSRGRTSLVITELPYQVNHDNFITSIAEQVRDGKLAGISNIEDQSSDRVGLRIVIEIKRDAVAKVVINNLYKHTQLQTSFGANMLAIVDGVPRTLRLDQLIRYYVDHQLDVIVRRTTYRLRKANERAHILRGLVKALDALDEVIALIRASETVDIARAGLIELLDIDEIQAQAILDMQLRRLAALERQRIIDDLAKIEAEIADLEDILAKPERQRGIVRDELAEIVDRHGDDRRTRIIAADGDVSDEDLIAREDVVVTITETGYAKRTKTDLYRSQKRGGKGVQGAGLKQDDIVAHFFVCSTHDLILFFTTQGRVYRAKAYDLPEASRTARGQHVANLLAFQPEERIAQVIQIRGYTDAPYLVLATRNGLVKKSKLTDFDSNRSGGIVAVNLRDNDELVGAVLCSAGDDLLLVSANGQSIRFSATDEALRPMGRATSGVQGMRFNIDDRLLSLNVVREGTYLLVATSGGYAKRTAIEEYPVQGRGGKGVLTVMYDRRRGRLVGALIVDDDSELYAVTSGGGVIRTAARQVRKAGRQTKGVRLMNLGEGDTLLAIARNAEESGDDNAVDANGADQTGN

`Cc1cc2c(c(O)c1-c1c(C)cc(O)c3c1C(=O)C=CC3=O)C(=O)C=CC2=O` [Isodiospyrin]: half-maximal inhibition (IC50) was put at 100 µM. Then `CC1=CC(=O)c2ccccc2C1=O` [Vitamin K3], with greater than 200 µM; and `Cc1cc(O)c2c(c1)C(=O)C(c1c(C)cc3c(c1O)C(=O)C=CC3=O)=CC2=O` [Diospyrin], with 15 µM; and `Cc1cc(O)c2c(c1)C(=O)C=CC2=O` [5-Hydroxy-7-methyl-[1,4]naphthoquinone], with 30 µM.

`Cc1cc(O)c2c(c1)C(=O)C=C(c1c(C)cc(O)c3c1C(=O)C=CC3=O)C2=O` [Neodiospyrin] registered an IC50 of 50 µM.
